Experiments:
[1] = system: bulk TILs (patient 1635WI); assay: Cytokine and chemokine secretion of bulk TILs stimulated with IPdBPs; format: cell-based, human; design: key to CD40 Ligand / Flt-3 Ligand / GM-CSF / Granzyme B / IFN-α / IFN-γ / IL-1rα / IL-1α / IL-1β / IL-2 / IL-3 / IL-4 / IL-5 / IL-6 / IL-7 / IL-10 / IL-12p70 / IL-13 / IL-15 / IL-17A / IL-33 / TNF-α / RANTES: pg/mL, negative-control amount subtracted; CXCL2/GROβ / CXCL10/IP-10 / CCL2/MCP-1 / CCL3/MIP-1α / CCL4/MIP-1β: unit not given beside the values; conditions: secretion by bulk TILs after peptide stimulation; sheet 1e
Description: Fig. 1 Elution of HLA class II-presented bacterial peptides from 19 glioblastomas and the stimulatory effect of IPdBPs on bulk TILs. a, Schematic of the immunopeptidome analyses of glioblastoma tissue, from which eluted peptides were annotated using the UniProt bacteria database (1). TILs or peripheral memory T cells were stimulated with IPdBPs (2 and 3). LC–MS, liquid chromatography–mass spectrometry; PBMC, peripheral blood mononuclear cell. The images in panel a were created using BioRender (https://biorender.com). b, Number of unique IPdBPs in patients with glioblastoma (n = 19) (data from patient 1635WI contains both primary and recurrent tumours together), with 344 unique IPdBPs identified (left). These peptides originated from 255 and 199 unique proteins and bacteria, respectively (3 technical replicates). […] As a control, peptidome data were also annotated using human protein database to identify eluted self-peptides. As shown, most of HLA class II-bound peptides are self-(human) peptides. IPdBPs of primary (bottom left, n = 18) and recurrent (bottom right, n = 23) tumours were separately annotated to their source bacteria at the phylum level. d, Bulk TILs (patient 1635WI) were stimulated with IPdBPs (See Supplementary Table 8), each in five replicate wells, and proliferation was measured after 5 days via ^3H-thymidine incorporation. […] The data are expressed as the mean value of all wells ± s.e.m. SIN3A* peptide was used as a positive control as TILs recognize this tumour antigen. T cells with APCs without any stimuli were used as a negative control. e, Heatmap of cytokine and chemokine secretion of TILs stimulated with three IPdBPs, which weakly stimulated proliferation. The secretion of each cytokine and chemokine was calculated by subtracting the corresponding cytokine and chemokine amount (pg ml^−1) of the negative control. TILs with APCs without any stimuli were used as a negative control. Also see Extended Data Fig. 1. Source data
(§1) Supernatants from each experiment were harvested a day before adding thymidine and frozen at −20 °C. Cytokines were measured using ELISA for human IFNγ ELISA MAX (BioLegend), human GM-CSF DuoSet ELISA (R&D Systems) and bead-based assays. A Synergy H1 hybrid multi-mode reader (Agilent) was used to measure the absorbance. The LEGENDplex Multi-analyte Flow Assay kit (BioLegend) is a 13-plex human TH cytokine panel, which includes IFNγ, TNF, IL-2, IL-4, IL-5, IL-6, IL-9, IL-10, IL-13, IL-17A, IL-17F, IL-21 and IL-22. […] LSR Fortessa Flow Cytometer (BD Biosciences) was used to measure cytokines, and data were analysed using FlowJo (Tree Star). The Human XL Cytokine Luminex Performance Assay Fixed Panel (R&D Systems) contains 45 analytes covering a broad range of various chemokines and cytokines.

TCC2D3 = conditions: 3 h
[2] = system: sorted CD4+ PE and FITC TCRVβ+ TILs; assay: Proliferation of TCRBV-sorted CD4+ TILs (without TCRBV6.1 and TCRBV6.2); format: cell-based, human; conditions: sheet 6b
Description: TILs expressing specific TCRBVs were isolated from bulk TILs using a panel of 22 fluorescently labelled TCRBV antibodies that detect 27 different TCRBVs. Twelve TCRBV antibodies were labelled with PE and 10 with FITC (Beckman Coulter). […] After another wash, cells were stained with CD4 (1:100) (APC anti-human CD4, eBioscience), CD8 (1:100) (Pacific blue anti-human CD8, BioLegend), TCRBV-PE (1:25) (Beckman Coulter) and TCRBV-FITC (1:25) (Beckman Coulter) antibodies (Supplementary Table 12) for 30 min. Finally, cells were sorted, seeded at 5 × 10^4 cells per well in T cell medium without h-IL-2 and rested for 1 day before stimulation with 2 × 10^5 cells per well of irradiated autologous PBMCs (45 Gy) and peptide (10 µM).
Two populations of CD4^+ PE-TCRVβ^+ and CD4^+ FITC-TCRVβ^+ were sorted and later mixed together. […] Specific amount of each cytokine/chemokine (pg/ml) was calculated by subtracting the cytokines in the negative control cultures (no peptide control). Source data

TCC75 = assay: Cytokine/chemokine secretion of TCC75; format: cell-based, human; conditions: 3 days; Extended Data Fig. 5e
TCC88 [3] = assay: Cytokine and chemokine secretion of TCC88 after peptide stimulation; format: cell-based, human; conditions: TCC88 supernatant after peptide stimulation; no peptide control subtracted; Fig. 3e
Description: Fig. 3 Bacteria-derived and microbiota-derived peptides can stimulate TCC88 as well as the tumour antigen. a, Peptides with the highest predicted stimulatory scores were identified by searching various databases (see Methods). Numbers of unique 10-mer peptides within each database, synthesized peptides, TCC88 stimulatory peptides and the corresponding percentage of stimulatory peptides within each database are shown. […] Cytokine and chemokine secretion of TCC88 was examined and compared upon stimulation with these three different antigens. A specific amount of each cytokine and chemokine (pg ml^−1) was calculated by subtracting the cytokines in the negative control cultures (no peptide control). f, Cytotoxicity of TCC88 against the autologous tumour cell line after stimulation with 2 µM of SIN3A* and HGM3 (data represent the mean percentage of two replicate wells). E:T, effector to target. g, TCC88 was tested with HGM3 (10 µM) or SIN3A* (10 µM) peptides or both together (each 10 µM), and ^3H-thymidine incorporation was measured after 3 days (data represent the mean SI value of three replicate wells ± s.e.m.). Also see Extended Data Figs. 3 and 4. Source data
as §1

TCC88 [4] = conditions: BLS-DRB3*02:02 as APCs; 3 days; SI ≥ 2 positive

AGPVVAAAVILKEDC [Peptidome.Bac 7]
CCL2/MCP-1 [1]: 11.43 | CCL3/MIP-1α [1]: 1 | CCL4/MIP-1β [1]: 0 | CCL11/Eotaxin [1]: 0 | CCL19/MIP-3β [1]: 2.91 | CCL20/MIP-3α [1]: 3.7 | CD40 Ligand [1]: 994.39 | CXCL1/GROα [1]: 4.06 | CXCL2/GROβ [1]: 18.18 | CXCL8/IL-8 [1]: 0 | CXCL10/IP-10 [1]: 68.01 | Flt-3 Ligand [1]: 8.98 | GM-CSF [1]: 20.54 | Granzyme B [1]: 0 | IFN-α [1]: 0 | IFN-γ [1]: 18.67 | IL-1rα [1]: 382.82 | IL-1α [1]: 0 | IL-1β [1]: 0 | IL-2 [1]: 0 | IL-3 [1]: 10.62 | IL-4 [1]: 0 | IL-5 [1]: 0 | IL-6 [1]: 16.87 | IL-7 [1]: 1.18 | IL-10 [1]: 11.57 | IL-12p70 [1]: 2.8 | IL-13 [1]: 7.47 | IL-15 [1]: 0.56 | IL-17A [1]: 0 | IL-17E/IL-25 [1]: 0 | IL-33 [1]: 0 | RANTES [1]: 0 | TNF-α [1]: 9.2

Ac-AVVTQPDK-NH2 [Pep-bac9]
SI: TCC2D3 (TCC2D3): 2.5

Ac-KEDMSVPLIKSIRK-NH2 [Pep-bac10]
SI: TCC2D3 (TCC2D3): 2.2

Ac-SNGDLDAIVVARAGLA-NH2 [Pep-bac16]
SI: TCC2D3 (TCC2D3): 2.2

Ac-VFDFNHSAIK-NH2 [HGM62]
Proliferation (SI) of sorted CD4+ TILs ([2]; replicate 1): 1.423 | Proliferation (SI) of sorted CD4+ TILs ([2]; replicate 2): 1.043 | Proliferation (SI) of sorted CD4+ TILs ([2]; replicate 3): 2.568

Ac-VWEFNHSLHP-NH2 [HGM27]
cytokine and chemokine profile of TCC75 (in words) (TCC75): secretes pro-inflammatory cytokines | Proliferation (SI) of sorted CD4+ TILs ([2]; replicate 1): 2.099 | Proliferation (SI) of sorted CD4+ TILs ([2]; replicate 2): 2.919 | Proliferation (SI) of sorted CD4+ TILs ([2]; replicate 3): 2.416

LIVFNHNCLK [HB84, UniProt bacteria database peptide]
CCL20/MIP-3α (TCC88 [3]): 8.75 pg/mL | CD40 Ligand (TCC88 [3]): 1473.06 pg/mL | CXCL1/GROα (TCC88 [3]): 73.57 pg/mL | CXCL2/GROβ (TCC88 [3]): 49.19 pg/mL | CXCL8/IL-8 (TCC88 [3]): 0 pg/mL | CXCL10/IP-10 (TCC88 [3]): 104.46 pg/mL | Flt-3 Ligand (TCC88 [3]): 100.29 pg/mL | Fractalkine (TCC88 [3]): 347.74 pg/mL | GM-CSF (TCC88 [3]): 5082.78 pg/mL | Granzyme B (TCC88 [3]): 2479.01 pg/mL | IFN-α (TCC88 [3]): 2.75 pg/mL | IFN-γ (TCC88 [3]): 910.88 pg/mL | IL-1rα (TCC88 [3]): 520.19 pg/mL | IL-1α (TCC88 [3]): 12.29 pg/mL | IL-1β (TCC88 [3]): 17.01 pg/mL | IL-2 (TCC88 [3]): 167.02 pg/mL | IL-3 (TCC88 [3]): 131.91 pg/mL | IL-4 (TCC88 [3]): 71.31 pg/mL | IL-5 (TCC88 [3]): 29.89 pg/mL | IL-6 (TCC88 [3]): 102.19 pg/mL | IL-7 (TCC88 [3]): 0.74 pg/mL | IL-10 (TCC88 [3]): 2358.6 pg/mL | IL-12p70 (TCC88 [3]): 19.71 pg/mL | IL-13 (TCC88 [3]): 1338.92 pg/mL | IL-15 (TCC88 [3]): 2.33 pg/mL | IL-17A (TCC88 [3]): 1.97 pg/mL | IL-17E/IL-25 (TCC88 [3]): 0 pg/mL | IL-33 (TCC88 [3]): 15.02 pg/mL | TNF-α (TCC88 [3]): 3267.52 pg/mL

LLDFNHSMVN [HGM26, human gut microbiota peptide]
Proliferation (SI) of sorted CD4+ TILs ([2]; replicate 1): 1.889 | Proliferation (SI) of sorted CD4+ TILs ([2]; replicate 2): 1.31 | Proliferation (SI) of sorted CD4+ TILs ([2]; replicate 3): 1.491

LVDFFHSSAI [HGM32]
recognition by TCC88, proliferation (in words) (TCC88 [4]): stimulatory

LWEFNNVSLA [HB4, UniProt bacteria database peptide]
Proliferation (SI) of sorted CD4+ TILs ([2]; replicate 1): 1.585 | Proliferation (SI) of sorted CD4+ TILs ([2]; replicate 2): 1.003 | Proliferation (SI) of sorted CD4+ TILs ([2]; replicate 3): 1.832

LYEFNHSPGF [HGM7, human gut microbiota peptide]
Proliferation (SI) of sorted CD4+ TILs ([2]; replicate 1): 2.804 | Proliferation (SI) of sorted CD4+ TILs ([2]; replicate 2): 1.758 | Proliferation (SI) of sorted CD4+ TILs ([2]; replicate 3): 3.368

QALVTLEENAVIG [Peptidome.Bac 14]
CCL2/MCP-1 [1]: 351.37 | CCL3/MIP-1α [1]: 23.58 | CCL4/MIP-1β [1]: 78.06 | CCL11/Eotaxin [1]: 0 | CCL19/MIP-3β [1]: 2.57 | CCL20/MIP-3α [1]: 4.22 | CD40 Ligand [1]: 666.28 | CXCL1/GROα [1]: 68.11 | CXCL2/GROβ [1]: 60.34 | CXCL8/IL-8 [1]: 917.52 | CXCL10/IP-10 [1]: 111.72 | Flt-3 Ligand [1]: 48.51 | GM-CSF [1]: 38.36 | Granzyme B [1]: 0 | IFN-α [1]: 0 | IFN-γ [1]: 8.17 | IL-1rα [1]: 700.66 | IL-1α [1]: 0 | IL-1β [1]: 0 | IL-2 [1]: 2.34 | IL-3 [1]: 0.97 | IL-4 [1]: 0 | IL-5 [1]: 0 | IL-6 [1]: 110.14 | IL-7 [1]: 0.64 | IL-10 [1]: 11.57 | IL-12p70 [1]: 0 | IL-13 [1]: 23.19 | IL-15 [1]: 0.56 | IL-17A [1]: 0 | IL-17E/IL-25 [1]: 0 | IL-33 [1]: 4.57 | RANTES [1]: 0 | TNF-α [1]: 26.86

QLEFNHAIAS [HB2, UniProt bacteria database peptide]
Proliferation (SI) of sorted CD4+ TILs ([2]; replicate 1): 1.556 | Proliferation (SI) of sorted CD4+ TILs ([2]; replicate 2): 1.363 | Proliferation (SI) of sorted CD4+ TILs ([2]; replicate 3): 1.455

VFAIDRAGLVGEDGPT [Peptidome.Bac 5]
CCL2/MCP-1 [1]: 40.48 | CCL3/MIP-1α [1]: 7.07 | CCL4/MIP-1β [1]: 0 | CCL11/Eotaxin [1]: 0 | CCL19/MIP-3β [1]: 0 | CCL20/MIP-3α [1]: 0 | CD40 Ligand [1]: 0 | CXCL1/GROα [1]: 0 | CXCL2/GROβ [1]: 5.86 | CXCL8/IL-8 [1]: 0 | CXCL10/IP-10 [1]: 62.72 | Flt-3 Ligand [1]: 1.13 | GM-CSF [1]: 16.51 | Granzyme B [1]: 0 | IFN-α [1]: 0 | IFN-γ [1]: 0 | IL-1rα [1]: 212.62 | IL-1α [1]: 0 | IL-1β [1]: 0 | IL-2 [1]: 0 | IL-3 [1]: 0 | IL-4 [1]: 0 | IL-5 [1]: 0 | IL-6 [1]: 8.61 | IL-7 [1]: 0.34 | IL-10 [1]: 0 | IL-12p70 [1]: 0 | IL-13 [1]: 16.57 | IL-15 [1]: 0 | IL-17A [1]: 0 | IL-17E/IL-25 [1]: 0 | IL-33 [1]: 0 | RANTES [1]: 0 | TNF-α [1]: 24.29

Reference: article PMC10208956, “Microbial peptides activate tumour-infiltrating lymphocytes in glioblastoma” (Nature, 2023)
